Read-outs that look alike come from different tables or passages of the source. Where a SMILES comes first, the peptide text is derived from it. The star is where a group is joined. Cbz = O=C(OCc1ccccc1)*
How the values were obtained:
[1] = test system: HIF transcriptional activity; experiment: HIF-dependent luciferase reporter assay (FLuc/RLuc ratio) in Hep3B-c1 cells; assay type: cell-based; conditions: Homo sapiens, 1% O2, 24 hours, read-out: IC50, inhibition of HIF-dependent reporter gene expression
Excerpt: The NCI CellMiner database contains expression data for over 25,000 mRNAs in 60 human cancer cell lines that have been exposed to more than 20,000 chemical compounds ([49]). We searched CellMiner for a compound that induced changes in gene expression that were highly correlated with those induced by acriflavine, but which was structurally unrelated to acriflavine. Compounds that satisfied the above criteria were identified and subsequently analyzed in Hep3B-c1 cells ([50]), which are stably transfected with HIF-dependent reporter plasmid p2.1, in which firefly luciferase (FLuc) coding sequences are located downstream from a hypoxia-response element (HRE) and a basal SV40 promoter; and control reporter pSVR, in which Renilla luciferase (RLuc) coding sequences are downstream of the basal SV40 promoter only (Figure 1A). The FLuc/RLuc ratio in cells exposed to 1% O2 for 24 hours is a specific measure of HIF-dependent gene expression.
Figure 1 Identification of HIF inhibitors. (A) Hep3B-c1 cells were stably transfected with firefly luciferase (FLuc) reporter p2.1, which contains a hypoxia-response element (HRE), and Renilla luciferase (RLuc) reporter pSVR. (B) Hep3B-c1 cells were incubated with vehicle (Veh; 0.1% DMSO; blue bars) or 10 μM 32-134D (red bars) at 20% O2 (n = 6) or 1% O2 (n = 12) for 24 hours. Cell lysates were assayed for Fluc/Rluc activity (mean ± SEM); *P < 0.05 versus vehicle (χ^2 test). (C) Chemical structures and IC50 values for HIF inhibitors. (D and E) Hep3B cells were exposed to 20% O2 with vehicle, or 1% O2 with vehicle (blue bar), 32-134D (red bars), 33-063 (green bars), or PT2385 (brown bars) for 24 hours and CA9 (D) and EPO (E) mRNAs were quantified by RT-qPCR. […] (F) Hep3B cells were exposed to 20% or 1% O2 in the presence of vehicle or 1% O2 in the presence of 5 μM 32-134D (n = 3 each) for 24 hours. […]
Hep3B-c1 cells ([50]) were seeded on 24-well plates. […] FLuc/RLuc ratios were determined using the Dual Luciferase Reporter Assay System (Supplemental Table 6) and the VICTOR Nivo plate reader (PerkinElmer).

[2] = test system: HIF target genes in Hep3B cells; experiment: RT-qPCR of endogenous HIF target gene expression in Hep3B cells; assay type: cell-based, human; conditions: Hep3B cells, 1% O2, 24 hours
Excerpt: Based on this hit, we synthesized analogs in which either halogen substitutions to the indole groups were altered or the central thiazole was replaced by imidazole, isoxazole, oxadiazole, oxazole, pyrazinone, pyridazine, pyrazine, pyrazole, pyridine, thiadiazole, triazine, or triazole. […] We focused on analyzing the effect of the bis-bromoindole thiazole 32-134D and the bis-indole thiadiazole 33-063 on endogenous HIF target gene expression in Hep3B cells. […] For comparison, we tested the effect of PT2385, which inhibited EPO, NDRG1, ANGPTL4, and VEGFA expression but had no effect on CA9, which is consistent with its HIF-2–selective mechanism of action ([44]). None of the compounds had any effect on RPL13A expression, which is neither induced by hypoxia nor regulated by HIFs (Supplemental Figure 2D).
Human Hep3B and mouse Hepa1-6 cells were purchased from ATCC and grown in high-glucose (4.5 mg/mL) Dulbecco’s modified Eagle’s medium supplemented with 10% (vol/vol) fetal bovine serum and 1% penicillin/streptomycin at 37°C in a 5% CO2/95% air incubator (Supplemental Table 6). Human cell line identity was authenticated by analysis of short tandem repeats, and all cell lines were maintained mycoplasma free, using PCR-based assays conducted at the Johns Hopkins University Genetic Resources Core Facility (JHU GRCF). Cells were subjected to hypoxia in a controlled atmosphere chamber (PLAS Labs) with ambient gas mixture containing 1% O2 and 5% CO2.
(§1) RNA was extracted using TRIzol Reagent. Quantitative real-time PCR was conducted using SYBR Green PCR Master Mix and reactions were run using a Bio-Rad thermal cycler. Primer sequences and reagent sources are listed in Supplemental Table 5. The mRNA expression of target genes was normalized to the expression of 18S rRNA and the fold change (FC) was calculated based on the threshold cycle (Ct) as FC = 2^–Δ(ΔCt), where ΔCt = Cttarget gene – Ct18S rRNA and Δ(ΔCt) = ΔCttreatment – ΔCtcontrol. For RNA-seq, total RNA was isolated and treated with DNase (Qiagen). The JHU GRCF High-Throughput Sequencing facility prepared libraries and performed RNA-seq. The RNA-seq data were processed and interpreted using Genialis Expressions software (https://www.genialis.com/expressions/). An automated data analysis pipeline run in the Genialis platform consisted of the following: Sequence quality checks were performed on raw and trimmed reads with FastQC. Bbduk was used to trim adapters and filter out poor quality reads. Trimmed reads were then mapped to the STAR index (ENSEMBL 100) reference genome using the STAR ([93]) aligner. Gene expression levels were quantified with featureCounts ([94]), and differential gene expression analyses were performed with DESeq2 ([95]). […] Differential expression was determined with an FDR of less than 0.05 and mRNA FC of greater than 1.5 to identify hypoxia-induced genes and genes inhibited by 32-134D. Data used in this study have been deposited in the NCBI Gene Expression Omnibus database (GEO GSE195997).
Supplemental Figure 2. Effect of 32-134D on gene expression in Hep3B cells. (A-D) Hep3B cells were exposed to 20% O2 in the presence of vehicle (first bar; no fill) or 1% O2 in the presence of: vehicle (blue bar) or the indicated concentration of 32-134D (bars with red fill) or 33-063 (bars with green fill), or PT2385 (bars with brown fill) for 24 hours and the indicated mRNAs were quantified by reverse transcription and quantitative real-time PCR (qPCR). Data are presented as mean + SEM (n = 3). *p < 0.05 vs white; **p < 0.01 vs blue (ANOVA with Bonferroni post-test). […]
(G-H) Analysis of HIF-1a (G) and HIF-2a (H) […]
mRNA expression in Hep3B cells exposed to vehicle or 32-134D at 20% or 1% O2 for 24

Hepa1-6 mouse HCC cells = experiment: RT-qPCR of hypoxia-induced gene expression in Hepa1-6 cells; assay type: cell-based; conditions: Hepa1-6, 1% O2, 24 hours
Experimental: Next, we analyzed Hepa1-6, which is a mouse HCC cell line. […] CXCL1, IL-6, and IL-10 were not induced by hypoxia, whereas hypoxia-induced IL-22 expression was inhibited by 32-134D (P < 0.05; Figure 3C).
Figure 3 Effect of 32-134D treatment on hypoxia-induced gene expression in Hepa1-6 cells. (A–C) Cells were exposed to 20% O2 and vehicle (white bars), 1% O2 and vehicle (blue bars), or 1% O2 and 32-134D (red bars) for 24 hours and mRNAs were quantified by RT-qPCR and normalized to white (mean ± SEM, n = 4). *P < 0.05 versus white; ^#P < 0.05 versus blue (ANOVA with Bonferroni’s post hoc test).
as §1
Supplemental Figure 7. Effect of 32-134D on gene expression in Hepa1-6 cells. Cells were exposed to 20% O2 and vehicle (white bar) or 1% O2 and vehicle (blue bar), 2.5-10 […]
for 24 hours and mRNAs were quantified by RT-qPCR and normalized to white (mean + SEM, n = 4). *p < 0.05 vs white; #p < 0.05 vs blue (ANOVA with Bonferroni post-test).
(1 picture or pasted object on this page, not shown here)

[3] = test system: HIF-1α and HIF-2α protein; experiment: Immunoblot of nuclear extracts of Hep3B cells; assay type: cell-based, human; conditions: 5 μM MG132 during last 8 hours, 5 μM 32-134D
Experimental: Figure 1 Identification of HIF inhibitors. (A) Hep3B-c1 cells were stably transfected with firefly luciferase (FLuc) reporter p2.1, which contains a hypoxia-response element (HRE), and Renilla luciferase (RLuc) reporter pSVR. (B) Hep3B-c1 cells were incubated with vehicle (Veh; 0.1% DMSO; blue bars) or 10 μM 32-134D (red bars) at 20% O2 (n = 6) or 1% O2 (n = 12) for 24 hours. Cell lysates were assayed for Fluc/Rluc activity (mean ± SEM); *P < 0.05 versus vehicle (χ^2 test). (C) Chemical structures and IC50 values for HIF inhibitors. (D and E) Hep3B cells were exposed to 20% O2 with vehicle, or 1% O2 with vehicle (blue bar), 32-134D (red bars), 33-063 (green bars), or PT2385 (brown bars) for 24 hours and CA9 (D) and EPO (E) mRNAs were quantified by RT-qPCR. […] (F) Hep3B cells were exposed to 20% or 1% O2 in the presence of vehicle or 1% O2 in the presence of 5 μM 32-134D (n = 3 each) for 24 hours. RNA sequencing identified genes with hypoxia-induced expression (blue circle) and genes that were inhibited by 32-134D (orange circle), based on FDR < 0.05 and fold change > 1.5. (G) Hep3B cells were exposed to 20% or 1% O2 for 24 hours in the presence of vehicle or 5 μM 32-134D, nuclear extracts were prepared, and immunoblot assays were performed. […]

[4] = test system: HIF-1, HIF-2 and p300 recruitment to HREs; experiment: ChIP-qPCR of HRE occupancy in Hep3B cells; assay type: cell-based, human; conditions: 16 hours, 5 µM 32-134D or 10 µM PT2385
Experimental: Coadministration of the proteasome inhibitor MG-132 blocked the effect of 32-134D on HIF-1α protein levels (Figure 1H). […] Taken together, the results presented in Figure 1 and Supplemental Figures 1–3 indicate that 32-134D induces HIF-α subunit degradation, thereby inhibiting activation of HIF-1 and HIF-2 target gene transcription.
Cells were seeded overnight and then exposed to 20% or 1% O2 in the presence of compound or vehicle for 16 hours. Protein was cross-linked to DNA by addition of 37% formaldehyde to culture medium for 10 minutes at 37°C and quenched by addition of 0.1 M glycine. Cells were washed with and collected in 5 mL of cold PBS containing PIs. Cells were pelleted and resuspended in 200 μL of SDS lysis buffer (50 mM Tris-HCl [pH 8.1], 10 mM EDTA, 1% SDS) containing PIs and incubated on ice for 10 minutes. Lysates were sonicated to produce DNA fragments ranging from 200 to 900 bp and centrifuged for 10 minutes at 4°C. Supernatants were collected and diluted 10-fold with dilution buffer (16.7 mM Tris-HCl [pH 8.1], 167 mM NaCl, 1.2 mM EDTA, 0.01% SDS, 1.1% Triton X-100) with PIs, precleared with 20 μL of salmon sperm DNA/protein A agarose slurry, and a 20-μL aliquot was reserved as input control. Antibody (2 μg; see Supplemental Table 6) was added and samples were rotated overnight at 4°C. Immune complexes were precipitated with 50 μL of salmon sperm DNA/protein A agarose slurry. Pelleted beads were washed serially using low-salt wash buffer (20 mM Tris-HCl [pH 8.1], 150 mM NaCl, 2 mM EDTA, 0.1% SDS, 1% Triton X-100); high-salt wash buffer (20 mM Tris-HCl [pH 8.1], 500 mM NaCl, 2 mM EDTA, 0.1% SDS, 1% Triton X-100); LiCl wash buffer (10 mM Tris-HCl [pH 8.1], 0.25 M LiCl, 1% Nonidet P-40, 1% deoxycholate, 1 mM EDTA); and TE buffer (10 mM Tris-HCl [pH 8.1], 1 mM EDTA). Elution buffer (1% SDS, 0.1 M NaHCO3) was added and eluates were heated at 65°C overnight to reverse cross-linking. Eluates were treated with proteinase K for 1 hour at 45°C and DNA was purified by extraction in phenol/chloroform/isoamyl alcohol (25:24:1, v/v/v) and isopropanol precipitation. […]

[5] = cited from earlier work
[6] = von Hippel-Lindau syndrome patients

Brc1ccc2c(-c3nc(-c4c[nH]c5ccc(Br)cc45)cs3)c[nH]c2c1 [Compound 11-88, reference compound]
IC50 [1]: 2.9 µM

c1ccc2c(-c3nsc(-c4c[nH]c5ccccc45)n3)c[nH]c2c1 [Compound 33-063]
IC50 [1]: 2.2 µM | hypoxia-induced ANGPTL4, VEGFA, NDRG1 and EPO mRNA expression [2]: significantly inhibited | hypoxia-induced CA9 mRNA expression (activated by HIF-1 only) [2]: significantly inhibited | RPL13A mRNA expression (Hepa1-6 mouse HCC cells): no effect | hypoxia-induced ANGPTL4, EPO, PGF, and VEGFA mRNA expression (Hepa1-6 mouse HCC cells; 2.5-10 µM): significant dose-dependent inhibition

CC(C)C[C@@H](C=O)NC(=O)[C@H](CC(C)C)NC(=O)[C@H](CC(C)C)NC(=O)OCc1ccccc1 [MG-132, reference compound] (Cbz-Leu-Leu-Leu-aldehyde)
effect of 32-134D on HIF-1α protein levels on coadministration [3]: blocked

CS(=O)(=O)c1ccc(Oc2cc(F)cc(C#N)c2)c2c1[C@H](O)C(F)(F)C2 [PT2385, reference compound]
hypoxia-induced ANGPTL4, VEGFA, NDRG1 and EPO mRNA expression [2]: inhibited | hypoxia-induced CA9 mRNA expression (activated by HIF-1 only) [2]: no effect | hypoxia-induced recruitment of HIFs and p300 to EPO and ANGPTL4 HREs [4]: inhibited | ANGPTL4, PGF, and VEGFA mRNA expression, potency compared with 32-134D and 33-063 (Hepa1-6 mouse HCC cells; 5-10 µM): less potent inhibitor | patients with grade 3 anemia ([5]; phase I trial): 10%

CS(=O)(=O)c1ccc(Oc2cc(F)cc(C#N)c2)c2c1[C@H](O)[C@H](F)[C@@H]2F [belzutifan/PT2977]
patients with decreased blood hemoglobin levels [5, 6]: 90% | patients with grade 3 anemia [5, 6]: 7%

— PMC9057582, “HIF inhibitor 32-134D eradicates murine hepatocellular carcinoma in combination with anti-PD1 therapy” (The Journal of Clinical Investigation, 2022)
